From ChEMBL document CHEMBL2177100, “Structural optimization and structure-activity relationships of N2-(4-(4-Methylpiperazin-1-yl)phenyl)-N8-phenyl-9H-purine-2,8-diamine derivatives, a new class of reversible kinase inhibitors targeting both EGFR-activating and resistance mutations” (J Med Chem, 2012) come the findings set out here.

The term IC50 denotes the point on the concentration scale where inhibition reaches its midpoint. As usually defined, the CL/F is clearance divided by bioavailability, as obtained after extravascular dosing.

In series [1] the target is MAP kinase-activated protein kinase 5 (Homo sapiens, UniProt Q8IW41). Briefly: Inhibition of human recombinant MK5 by radiometric kinase assay.
A further series relates to A-431. In words: Cytotoxicity against human A431 cells incubated for 72 hrs by MTT assay. It is filed as functional, cell-based. Particulars: A-431, 72 h. On the technique in general: Tetrazolium assays rely on reduction of a dye to a coloured formazan, in cell work by metabolically active cells.
The target in series [2] is Protein kinase C alpha type (Homo sapiens, UniProt P17252). Briefly: Inhibition of human recombinant PKCalpha by radiometric kinase assay.
Series [3] deals with NCI-H1975. Briefly: Antitumor activity against human NCI-H1975 cells xenografted in BALB/c mouse assessed as inhibition of tumor growth at 25 mg/kg, po qd. It is filed as functional. Conditions: read-out: TGI.
Series [4] deals with Cyclin-dependent kinase 2 (Homo sapiens, UniProt P24941). Briefly: Inhibition of human recombinant CDK2 by radiometric kinase assay.
In another series the test system is HCT-116. In words: Cytotoxicity against human HCT116 cells incubated for 72 hrs by MTT assay. Particulars: HCT-116, 72 h. The class given is functional, cell-based.
In a further series the test system is Mus musculus. In words: Toxicity in human NCI-H1975 cells xenografted BALB/c mouse assessed as body weight loss at 50 mg/kg, po qd. The class given is organism-based. Further details: dose 50 mg/kg, route oral. Particulars: in vivo. (A xenograft is tissue or cells of one species grown in another, often human tumour cells in immunodeficient mice.)
Series [5] concerns the target Tyrosine-protein kinase JAK2 (Homo sapiens, UniProt O60674). Briefly: Inhibition of human recombinant JAK2 by radiometric kinase assay.
A further series deals with HCC827. In words: Antitumor activity against human HCC827 cells xenografted in BALB/c mouse assessed as reduction tumor volume at 5 mg/kg, po qd. The class given is functional, organism-based. Further details: dose 5 mg/kg.
The target in series [6] is MAP kinase-interacting serine/threonine-protein kinase 2 (Homo sapiens, UniProt Q9HBH9). Briefly: Inhibition of human recombinant MNK2 by radiometric kinase assay.
For the next series, the system named is Calu-3. Briefly: Cytotoxicity against human Calu3 cells incubated for 72 hrs by MTT assay. The class given is functional, cell-based. Conditions: Calu-3, 72 h.
Series [7] can be described thus: Inhibition of human recombinant PKA by radiometric kinase assay.
The nature of series [8]: Clearance in Sprague-Dawley rat at 20 mg/kg, po. It is filed as ADME, organism-based. Further details: dose 20 mg/kg, route oral. Conditions: in vivo.
In another series the target is Insulin receptor (Homo sapiens, UniProt P06213). In words: Inhibition of human recombinant INSR by radiometric kinase assay.
Series [9] concerns the target Tyrosine-protein kinase JAK1 (Homo sapiens, UniProt P23458). Briefly: Inhibition of human recombinant JAK1 by radiometric kinase assay.
In series [10] the target is Rho-associated protein kinase 2 (Homo sapiens, UniProt O75116). Briefly: Inhibition of human recombinant ROCK2 by radiometric kinase assay.
A further series has as its system PC-9. In words: Cytotoxicity against human PC9 cells incubated for 72 hrs by MTT assay. The class given is functional, cell-based. Conditions: PC-9, 72 h.
The subject of series [11] is NCI-H1975. In words: Antitumor activity against human NCI-H1975 cells xenografted in BALB/c mouse assessed as reduction in Ki67 expression at 50 mg/kg/day, po for 10 days by immunohistochemistry. It is filed as functional, organism-based.
In series [12] the target is Serine/threonine-protein kinase N2 (Homo sapiens, UniProt Q16513). Briefly: Inhibition of human recombinant PKN2 by radiometric kinase assay.
Series [13] concerns the target Vascular endothelial growth factor receptor 2 (Homo sapiens, UniProt P35968). In words: Inhibition of human recombinant VEGFR2 by radiometric kinase assay.
Series [14] deals with Tyrosine-protein kinase JAK3 (Homo sapiens, UniProt P52333). Briefly: Inhibition of human recombinant JAK3 by radiometric kinase assay.

Calls of active or inactive are those of the source. No cut-off for these calls is given here.

Chain of MAP kinase-activated protein kinase 5 (Q8IW41 whole entry): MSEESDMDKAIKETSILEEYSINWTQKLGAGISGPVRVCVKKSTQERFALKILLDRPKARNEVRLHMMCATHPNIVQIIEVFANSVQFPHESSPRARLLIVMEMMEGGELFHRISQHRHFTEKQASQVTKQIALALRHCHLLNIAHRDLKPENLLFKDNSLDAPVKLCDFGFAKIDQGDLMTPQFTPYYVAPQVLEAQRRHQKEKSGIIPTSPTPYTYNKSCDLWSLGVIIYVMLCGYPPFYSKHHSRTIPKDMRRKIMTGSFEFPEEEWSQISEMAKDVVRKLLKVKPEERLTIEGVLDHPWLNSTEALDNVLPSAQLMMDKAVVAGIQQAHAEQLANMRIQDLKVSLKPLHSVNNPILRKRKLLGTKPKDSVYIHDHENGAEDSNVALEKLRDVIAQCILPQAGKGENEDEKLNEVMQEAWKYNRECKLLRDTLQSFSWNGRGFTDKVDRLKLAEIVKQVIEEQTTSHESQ
Chain of Tyrosine-protein kinase JAK2 (O60674 whole entry): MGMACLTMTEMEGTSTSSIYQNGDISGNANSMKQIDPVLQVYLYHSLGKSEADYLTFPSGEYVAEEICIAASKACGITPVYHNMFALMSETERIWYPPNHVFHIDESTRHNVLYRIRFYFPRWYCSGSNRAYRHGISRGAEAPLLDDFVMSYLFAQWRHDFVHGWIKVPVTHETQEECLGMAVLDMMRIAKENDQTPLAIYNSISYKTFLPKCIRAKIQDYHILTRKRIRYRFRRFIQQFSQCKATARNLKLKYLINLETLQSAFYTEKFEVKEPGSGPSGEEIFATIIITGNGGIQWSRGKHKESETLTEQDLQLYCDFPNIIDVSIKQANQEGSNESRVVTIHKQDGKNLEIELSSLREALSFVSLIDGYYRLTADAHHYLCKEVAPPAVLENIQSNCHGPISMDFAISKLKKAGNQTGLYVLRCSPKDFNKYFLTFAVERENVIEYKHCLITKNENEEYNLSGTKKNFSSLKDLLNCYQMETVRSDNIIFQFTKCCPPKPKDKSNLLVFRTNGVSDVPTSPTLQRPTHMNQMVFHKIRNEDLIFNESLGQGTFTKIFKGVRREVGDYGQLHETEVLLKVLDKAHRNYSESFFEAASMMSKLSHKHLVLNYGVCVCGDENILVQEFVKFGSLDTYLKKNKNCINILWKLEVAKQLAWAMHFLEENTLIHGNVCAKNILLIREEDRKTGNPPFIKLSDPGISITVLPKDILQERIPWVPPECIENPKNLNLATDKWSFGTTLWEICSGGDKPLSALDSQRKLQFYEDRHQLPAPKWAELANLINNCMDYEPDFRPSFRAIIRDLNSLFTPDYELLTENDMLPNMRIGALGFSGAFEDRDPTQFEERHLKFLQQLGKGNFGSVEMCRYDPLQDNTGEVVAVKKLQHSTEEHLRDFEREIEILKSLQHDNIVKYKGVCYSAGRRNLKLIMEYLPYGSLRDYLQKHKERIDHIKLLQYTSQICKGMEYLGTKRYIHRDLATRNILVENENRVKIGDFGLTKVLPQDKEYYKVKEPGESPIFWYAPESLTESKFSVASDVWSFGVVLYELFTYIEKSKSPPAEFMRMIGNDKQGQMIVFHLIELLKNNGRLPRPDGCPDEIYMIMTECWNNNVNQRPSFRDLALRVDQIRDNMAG
Chain of Insulin receptor (P06213 28-758 limits assumed): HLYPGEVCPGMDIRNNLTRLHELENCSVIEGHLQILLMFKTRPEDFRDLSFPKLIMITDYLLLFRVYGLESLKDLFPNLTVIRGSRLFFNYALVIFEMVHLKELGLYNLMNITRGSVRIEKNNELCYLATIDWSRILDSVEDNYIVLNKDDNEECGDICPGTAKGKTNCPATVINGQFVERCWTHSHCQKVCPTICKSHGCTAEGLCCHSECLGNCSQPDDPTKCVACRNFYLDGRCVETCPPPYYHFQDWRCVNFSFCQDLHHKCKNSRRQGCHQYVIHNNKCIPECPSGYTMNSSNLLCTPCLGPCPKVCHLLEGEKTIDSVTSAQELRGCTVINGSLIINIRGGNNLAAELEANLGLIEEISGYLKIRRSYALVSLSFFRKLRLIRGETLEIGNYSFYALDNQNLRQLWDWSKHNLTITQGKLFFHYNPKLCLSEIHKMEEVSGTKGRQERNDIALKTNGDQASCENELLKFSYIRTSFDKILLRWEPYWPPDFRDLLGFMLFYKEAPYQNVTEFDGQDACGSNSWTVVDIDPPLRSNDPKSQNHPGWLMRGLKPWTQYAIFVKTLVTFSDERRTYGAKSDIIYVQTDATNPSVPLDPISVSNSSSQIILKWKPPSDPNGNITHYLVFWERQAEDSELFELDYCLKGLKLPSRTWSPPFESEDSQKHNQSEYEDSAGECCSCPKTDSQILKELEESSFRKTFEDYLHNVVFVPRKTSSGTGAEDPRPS
Chain of Insulin receptor (P06213 763-1382 limits assumed): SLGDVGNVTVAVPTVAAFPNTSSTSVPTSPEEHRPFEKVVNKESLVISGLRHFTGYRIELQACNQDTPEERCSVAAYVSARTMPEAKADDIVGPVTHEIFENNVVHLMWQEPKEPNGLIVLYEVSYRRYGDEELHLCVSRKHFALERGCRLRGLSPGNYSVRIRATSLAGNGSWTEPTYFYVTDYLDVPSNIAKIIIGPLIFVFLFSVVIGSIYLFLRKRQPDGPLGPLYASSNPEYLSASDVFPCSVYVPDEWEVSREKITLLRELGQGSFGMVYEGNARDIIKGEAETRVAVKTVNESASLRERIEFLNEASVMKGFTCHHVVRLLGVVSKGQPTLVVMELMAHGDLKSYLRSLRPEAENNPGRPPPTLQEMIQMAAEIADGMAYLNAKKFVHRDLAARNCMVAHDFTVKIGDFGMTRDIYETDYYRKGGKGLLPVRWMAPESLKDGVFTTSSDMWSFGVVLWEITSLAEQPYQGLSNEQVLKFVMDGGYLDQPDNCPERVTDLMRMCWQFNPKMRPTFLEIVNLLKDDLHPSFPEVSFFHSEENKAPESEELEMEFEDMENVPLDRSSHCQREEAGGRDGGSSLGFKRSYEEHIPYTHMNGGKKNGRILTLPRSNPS
Chain of Tyrosine-protein kinase JAK3 (P52333 whole entry): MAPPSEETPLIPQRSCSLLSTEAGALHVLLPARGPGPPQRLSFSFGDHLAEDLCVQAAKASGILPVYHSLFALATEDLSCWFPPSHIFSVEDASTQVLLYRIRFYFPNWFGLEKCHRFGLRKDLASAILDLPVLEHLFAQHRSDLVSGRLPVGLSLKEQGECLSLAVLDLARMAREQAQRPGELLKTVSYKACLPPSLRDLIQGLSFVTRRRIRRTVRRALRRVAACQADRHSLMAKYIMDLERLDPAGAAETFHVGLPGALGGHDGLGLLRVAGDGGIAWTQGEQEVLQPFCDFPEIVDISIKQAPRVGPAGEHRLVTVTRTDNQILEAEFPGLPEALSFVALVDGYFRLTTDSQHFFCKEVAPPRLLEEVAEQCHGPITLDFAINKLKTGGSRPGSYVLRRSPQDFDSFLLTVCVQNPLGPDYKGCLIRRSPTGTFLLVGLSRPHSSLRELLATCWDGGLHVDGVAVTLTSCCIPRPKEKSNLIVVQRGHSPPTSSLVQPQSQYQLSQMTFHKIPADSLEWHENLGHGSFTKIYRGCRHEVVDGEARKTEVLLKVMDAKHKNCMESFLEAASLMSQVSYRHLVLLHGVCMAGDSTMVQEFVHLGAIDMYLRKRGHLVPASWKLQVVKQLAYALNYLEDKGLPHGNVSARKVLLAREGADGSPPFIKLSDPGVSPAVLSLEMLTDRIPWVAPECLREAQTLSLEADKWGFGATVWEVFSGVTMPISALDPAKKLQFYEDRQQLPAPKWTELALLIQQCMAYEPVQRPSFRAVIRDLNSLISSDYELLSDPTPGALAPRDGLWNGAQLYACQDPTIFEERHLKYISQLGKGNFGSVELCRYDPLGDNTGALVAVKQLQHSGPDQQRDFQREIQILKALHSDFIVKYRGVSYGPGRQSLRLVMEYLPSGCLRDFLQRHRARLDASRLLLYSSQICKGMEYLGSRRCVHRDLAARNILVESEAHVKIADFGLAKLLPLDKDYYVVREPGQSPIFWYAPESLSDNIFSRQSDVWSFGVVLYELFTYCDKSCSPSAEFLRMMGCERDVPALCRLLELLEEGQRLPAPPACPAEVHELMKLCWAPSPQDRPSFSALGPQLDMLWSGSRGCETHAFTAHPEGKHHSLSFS
Chain of Serine/threonine-protein kinase N2 (Q16513 whole entry): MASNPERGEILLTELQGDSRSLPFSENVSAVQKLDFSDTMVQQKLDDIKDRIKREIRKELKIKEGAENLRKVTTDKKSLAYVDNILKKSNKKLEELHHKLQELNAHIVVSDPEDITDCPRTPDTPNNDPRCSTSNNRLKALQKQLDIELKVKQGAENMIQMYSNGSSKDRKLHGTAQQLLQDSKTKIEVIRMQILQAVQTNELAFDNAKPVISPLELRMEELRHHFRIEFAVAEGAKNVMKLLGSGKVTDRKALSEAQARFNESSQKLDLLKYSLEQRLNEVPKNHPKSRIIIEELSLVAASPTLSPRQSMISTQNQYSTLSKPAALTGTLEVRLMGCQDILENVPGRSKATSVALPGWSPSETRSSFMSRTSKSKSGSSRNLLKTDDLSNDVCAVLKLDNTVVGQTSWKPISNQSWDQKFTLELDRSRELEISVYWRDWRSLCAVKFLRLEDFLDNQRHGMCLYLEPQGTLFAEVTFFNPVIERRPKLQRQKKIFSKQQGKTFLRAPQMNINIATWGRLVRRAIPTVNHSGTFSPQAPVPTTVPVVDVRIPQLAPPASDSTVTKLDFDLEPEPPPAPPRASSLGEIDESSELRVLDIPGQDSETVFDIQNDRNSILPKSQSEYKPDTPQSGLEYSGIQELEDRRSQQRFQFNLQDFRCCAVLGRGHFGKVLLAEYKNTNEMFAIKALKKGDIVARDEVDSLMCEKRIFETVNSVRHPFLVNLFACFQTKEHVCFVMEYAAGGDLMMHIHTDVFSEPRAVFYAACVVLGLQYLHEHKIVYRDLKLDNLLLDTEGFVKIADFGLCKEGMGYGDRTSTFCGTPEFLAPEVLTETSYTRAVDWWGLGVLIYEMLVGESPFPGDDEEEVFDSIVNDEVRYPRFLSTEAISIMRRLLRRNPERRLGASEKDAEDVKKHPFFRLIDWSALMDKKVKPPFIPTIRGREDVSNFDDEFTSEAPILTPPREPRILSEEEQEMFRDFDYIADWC

With `CN1CCN(c2ccc(Nc3ncc4nc(Nc5ccccc5)n(C5CCCC5)c4n3)cc2)CC1`, the 50% inhibitory concentration (IC50) in [1] is more than 10 µM; in the series on A-431, 0.12 µM; in [2], 6.7 µM; in series [4], more than 10 µM; in the series with HCT-116, 3 µM; in [5], 1.2 µM. The concentration for half-maximal inhibition (IC50) in series [6] was 3.2 µM; in the series on Calu-3, 0.12 µM; in series [7], 1.1 µM; on Insulin receptor, more than 10 µM; in [9], 3.3 µM; in series [10], more than 10 µM. For the same molecule, the IC50 is 0.00022 µM in the series with PC-9, more than 10 µM in series [12], 0.02 µM in series [13] and 2.6 µM in series [14]. In the series with NCI-H1975 [3], the inhibition in vivo at 25 mg/kg was found to be 35%. Besides, in the series on Mus musculus, the Activity amounted to 4.4%. Besides, the TGI entry with HCC827 was “Active”. In addition, in series [8], the apparent clearance CL/F is 162 mL/min/kg. Further, the result in the series on NCI-H1975 [11] was Active.
